Measured values as given in patent publication US20050113284A1, “Drug for regenerating tissue and vessel and method therefor” (priority 2001, published 2005).

Experiments:
[1] = system: C-terminal region of human MERMUC (bait-2, bait-3); test: Yeast two hybrid screening of human kidney cDNA library with MERMUC baits; type: binding; conditions: bait-2 = 123 amino acid portion of the C-terminus of human MERMUC
Experimental: Specifically, yeast two hybrid system (Proc. Natl. Acad. Sci. USA., 1991, Vol.88, p.9578-9582) was performed to screen a human kidney cDNA library using cDNA corresponding to the C-terminal region of the human MERMUC as the bait (that is, fishing bait).
Two kinds of bait (bait-2 and bait-3) were designed using each of Ex.-2 and Ex.-3 as the core. Bait-2 corresponds to a 123 amino acid portion of the C-terminus (bait-2) and bait-3 corresponds to the 65 C-terminal amino acids (bait-3).
Each bait vector was obtained by inserting each DNA fragment obtained by digesting each of the PCR products with the restriction enzymes EcoRI and SalI into the EcoRI/SalI site of pGBKT7 vector (leucine biosynthesis gene as a marker; CLONTECH). In yeast, the gene within the vector is produced as a fusion protein ([fusion protein A]) with the DNA binding region (GAL4-DB) of the yeast transcription factor GAL4.
On the other hand, each cDNA of the human kidney derived cDNA library (CLONTECH) that is used for the screening with the bait vector is inserted in pADK vector (tryptophan biosynthesis gene as a marker). Therefore, proteins produced through the expression of each of these cDNAs in yeast are produced as a fusion protein ([fusion protein B]) with the GAL4 transcriptional activation region (GAL4-AD). […]

MERMUC = MERMUC protein phosphorylation in [32P]-labelled MERMUC/293 cells; type: cell-based, human; conditions: for phosphorylation of MERMUC upon growth factor stimulation: MERMUC overexpressing cells cultured without Dox, HGF 20ng/ml, 5 min
Experimental: After labeling the Tet-Off/MERMUC expressing recombinant cells (MERMUC/293 cells) produced above with (^32P] orthophosphate, the cells were stimulated with human recombinant HGF (20ng/ml; 5 min). Next, cell lysate was prepared by lysing cells according to conventional method. Anti-human MERMUC polyclonal antibody prepared as above (Example 2) was added to and reacted with the obtained cell lysate, bound to protein-G Sepharose, and then MERMUC protein and anti-MERMUC polyclonal antibody complex was precipitated by centrifugation.
The precipitate was extracted with 1% SDS and similar immunoprecipitation procedure was performed to reduce the background. The sample prepared by this procedure was separated by SDS-PAGE and analyzed by autoradiography.
Furthermore, MERMUC expression in the above mentioned recombinant cells was confirmed to be constant regardless of the presence or absence of HGF by Western blotting according to conventional method using anti-human MERMUC polyclonal antibody.
The following experiments were conducted similarly as described above: • 1) epidermal growth factor (EGF) was used in place of HGF; • 2) MERMUC expressing cells were treated with HGF signaling suppressor, PI3 kinase inhibitor (LY294002; 10 μM; CALBIOCHEM), before HGF stimulation; • 3) MERMUC expressing cells were treated with HGF signaling suppressor, MEK 1/2 inhibitor (U0126; 10 μM; CALBIOCHEM), before HGF stimulation; • 4) MERMUC expressing cells were treated with PI3 kinase inhibitor (LY294002; 10 μM) before EGF stimulation; and • 5) MERMUC expressing cells were treated with MEK 1/2 inhibitor (U0126; 10 μM) before EGF stimulation.

hepatocytes = test: Growth factor dependent proliferation of primary hepatocytes of MERMUC-Tg and non-Tg mice; type: cell-based, mouse; conditions: 24 hr
Experimental: Primary cell culture of hepatocytes from liver cells obtained from the liver of each of the MERMUC-Tg mice (8 weeks old, 4 mice) and non-Tg mice (8 weeks old, 4 mice) was prepared by collagenase treatment according to the method of Berry and Friend, and Seglen et al. (Berry & Friend, J. Cell Biol., 1969, Vol. 43, p. 506-520; Seglen et al., Methods in Cell Biol., 1976, Vol. 13, p. 29-83).
Each of the obtained hepatocytes (2×10^3 cells) was cultured in serum-free media for 15 hr, HGF (0, 1 or 3 ng/ml) was added to the media to induce HGF-dependent cell proliferation, and was further cultured. Similarly, cultivation was performed by adding epidermal growth factor (EGF; 0, 1, or 10 ng/ml) in place of HGF to the culture as a control.
After 24 hr from HGF addition, cell numbers were counted using Cell Count Reagent SF (Nacalai tesque) according to the experimental protocol provided with the reagent to calculate the relative cell proliferation rate after HGF (or EGF) addition. Tests were conducted in triplicate.

[2] = target: T1, HGF receptor c-Met β chain (Homo sapiens, UniProt P08581); test: Yeast two-hybrid binding of MERMUC bait proteins to c-Met prey (C-terminal 91 amino acids); conditions: prey clone No. 3-309 (C-terminal 91 amino acids of human c-Met)
T1 construct: expressed in transfected cells; host or cells: yeast AH109 strain (library prey plasmid, human kidney cDNA library, CLONTECH)
T1 sequence (P08581 1300-1390): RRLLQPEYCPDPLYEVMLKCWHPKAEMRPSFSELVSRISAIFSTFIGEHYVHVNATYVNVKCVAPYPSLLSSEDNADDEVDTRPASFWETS
Experimental: The present examination was performed using the previously reported yeast two-hybrid system (references are described above) according to conventional method and the experimental protocols provided with the reagents. […]
The binding ability of MERMUC bait protein derived from each of the bait vectors to the HGF receptor c-Met β chain was analyzed by the yeast two-hybrid system described above. […]
Each of the bait vectors was cointroduced into yeast AH109 strain with human HGF receptor c-Met prey vector (comprising DNA encoding the C-terminal 91 amino acids of the c-Met; Example 1). The binding ability of each of the bait proteins (randomly selected 10 amino acids of the human MERMUC C-terminal region) to the C-terminal region of human c-Met β chain was analyzed by the yeast two-hybrid system similar to the aforementioned Example.

liver = test: HGF-dependent liver enlargement in MERMUC-Tg and non-Tg mice; type: in vivo; conditions: human HGF expression plasmid 28 μg/mouse into tail vein, two days
Excerpt: It has been reported that HGF is transiently overexpressed in vivo by the injection of HGF expression plasmid DNA into the tail vein of normal mice, causing liver enlargement due to the enhancement of hepatocyte proliferation (Hepatology, 2001, Vol. 33, p848-859). Therefore, to validate the down-regulation activity of MERMUC on HGF receptor mediated signaling, the method in the above mentioned report was applied to MERMUC overexpressing transgenic mice (MERMUC-Tg; 7 weeks old; male; 23-33 g) produced in the previous Example, and the effect due to the expression of MERMUC on liver enlargement induced by HGF overexpression was examined. Human HGF expression plasmid (human HGF-cDNA in pcDNA3; Invitrogen) or plasmid pcDNA3 (mock) was injected into the tail vein of each of MERMUC-Tg mouse and littermate non-Tg mouse at a concentration of 28 μg/mouse (2.3 ml saline) within 5 to 10 seconds. The HGF level in serum of each of the mice was measured using a human HGF ELISA kit (Genzyme Techne) two days after the plasmid injection. The level of HGF production due to the administered plasmid in each animal was evaluated together with the changes in liver weight upon laparotomy.

C-terminal region of human MERMUC (bait-2, bait-3), sequence (Q8N307 587-709): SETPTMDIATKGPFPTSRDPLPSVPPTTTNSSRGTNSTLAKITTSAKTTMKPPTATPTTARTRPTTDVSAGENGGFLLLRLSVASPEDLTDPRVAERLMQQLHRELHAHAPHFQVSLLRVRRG

clone No. 2-211: prey protein: C-terminal 56 amino acids (amino acids 448-503 of SEQ ID NO: 10) of human MERMUC (VSAGENGGFLLLRLSVASPEDLTDPRVAERLMQQLHRELHAHAPHFQVSLLRVRRG; listed as Homo sapiens)
binding ability to the protein derived from bait-2 [1]: had binding ability

EGF: epidermal growth factor, used as control in place of HGF
phosphorylation of MERMUC upon growth factor stimulation (MERMUC): did not show effect to increase phosphorylation of MERMUC
EGF stimulated hepatocyte proliferation (hepatocytes; MERMUC-Tg and non-Tg hepatocytes, EGF 0, 1 or 10 ng/ml): dosage-dependent cell proliferation

C53: MERMUC bait protein, C-terminal 53 amino acids of C260; amino acids 451-503 of SEQ ID NO: 10 (GENGGFLLLRLSVASPEDLTDPRVAERLMQQLHRELHAHAPHFQVSLLRVRRG; listed as Homo sapiens)
binding activity to the HGF receptor c-Met β chain [2]: possessed the binding activity

N#CC(=C(/N)Sc1ccccc1N)/C(C#N)=C(/N)Sc1ccccc1N [MEK 1/2 inhibitor, U0126, reference compound]
suppression of the enhancement of MERMUC phosphorylation (MERMUC; cells treated with inhibitor 10 μM before HGF stimulation): suppressed only in the cells treated with PI3 kinase inhibitor

HGF: hepatocyte growth factor, ligand of c-Met; in b422 supplied by human HGF expression plasmid (human HGF-cDNA in pcDNA3)
phosphorylation of MERMUC upon growth factor stimulation (MERMUC): strong signal band
proliferation due to HGF stimulation of hepatocytes (hepatocytes; MERMUC-Tg derived hepatocytes compared with non-Tg, HGF 0, 1 or 3 ng/ml): significant decrease
increase of the ratio of liver weight to body weight (liver; MERMUC-Tg mice): about 1.2 times
increase of the ratio of liver weight to body weight (liver; non-Tg mice): about 1.6 times
